Data: US20250154141A1 (University of Florida Research Foundation, Incorporated, priority 2021, published 2025)
Where two headings read alike, the source gives them in different places.

Legend:
[1] = tested on: MOLT-4; test: Cell viability assay (MTS) in MOLT-4 cells; type: cell-based; conditions: Homo sapiens
Experimental: (§1) Acute lymphoblastic leukemia cells (MOLT-4 and RS4; 11) were incubated with increasing concentrations of Bcl-xL degraders for 48 h. Cell viability was measured by tetrazolium-based MTS assay.

[2] = tested on: RS4; 11; test: Cell viability assay (MTS) in RS4; 11 cells; type: cell-based; conditions: Homo sapiens
Experimental: as §1

[3] = MOLT-4, Table 2, 48 hr, MTS, read-out: Anti-Cancer Activity IC50 (48 hr) MOLT-4
[4] = RS4-11, Table 2, 48 hr, MTS, read-out: Anti-Cancer Activity IC50 (48 hr) RS4, 11

IC50 [1, 3] [nM]	IC50 [2, 4] [nM]	Structure (SMILES)	other results
20 to 100	< 20	Cc1ncsc1-c1ccc([C@H](C)NC(=O)[C@@H]2C[C@@H](O)CN2C(=O)[C@@H](NC(=O)CCCCCCC(=O)N2CCN(C[C@]3(C)CCC(c4ccc(Cl)cc4)=C(CN4CCN(c5ccc(C(=O)NS(=O)(=O)c6ccc(N[C@H](CCN7CC8CCC7C8)CSc7ccccc7)c([N+](=O)[O-])c6)cc5)CC4)C3)CC2)C(C)(C)C)cc1 (stereo partly drawn) [Compound 53, (2S,4R)-1-((2S)-2-(8-(4-(((4R)-6-((4-(4-(((4-(((2R)-4-(2-azabicyclo[2.2.1]heptan-2-yl)-1-(phenylthio)butan-2-yl)amino)-3-nitrophenyl)sulfonyl)carbamoyl)phenyl)piperazin-1-yl)methyl)-4′-chloro-4-methyl-2,3,4,5-tetrahydro-[1,1′-biphenyl]-4-yl)methyl)piperazin-1-yl)-8-oxooctanamido)-3,3-dimethylbutanoyl)-4-hydroxy-N—((S)-1-(4-(4-methylthiazol-5-yl)phenyl)ethyl)pyrrolidine-2-carboxamide]	
100 to 500	20 to 100	Cc1ncsc1-c1ccc([C@H](C)NC(=O)[C@@H]2C[C@@H](O)CN2C(=O)[C@@H](NC(=O)CCCCCCCC(=O)N2CCN(CCC3(C)CCC(c4ccc(Cl)cc4)=C(CN4CCN(c5ccc(C(=O)NS(=O)(=O)c6ccc(N[C@H](CCN7CCOCC7)CSc7ccccc7)c(S(=O)(=O)C(F)(F)F)c6)cc5)CC4)C3)CC2)C(C)(C)C)cc1 (stereo partly drawn) [Compound 29, (2S,4R)-1-((2S)-2-(9-(4-(2-(4′-chloro-4-methyl-6-((4-(4-(((4-(((R)-4-morpholino-1-(phenylthio)butan-2-yl)amino)-3-((trifluoromethyl)sulfonyl)phenyl)sulfonyl)carbamoyl)phenyl)piperazin-1-yl)methyl)-2,3,4,5-tetrahydro-[1,1′-biphenyl]-4-yl)ethyl)piperazin-1-yl)-9-oxononanamido)-3,3-dimethylbutanoyl)-4-hydroxy-N—((S)-1-(4-(4-methylthiazol-5-yl)phenyl)ethyl)pyrrolidine-2-carboxamide]	
20 to 100	< 20	Cc1ncsc1-c1ccc([C@H](C)NC(=O)[C@@H]2C[C@@H](O)CN2C(=O)[C@@H](NC(=O)CCCCCCC(=O)N2CCN(C[C@]3(C)CCC(c4ccc(Cl)cc4)=C(CN4CCN(c5ccc(C(=O)NS(=O)(=O)c6ccc(N[C@H](CCN(C)CCO)CSc7ccccc7)c([N+](=O)[O-])c6)cc5)CC4)C3)CC2)C(C)(C)C)cc1 [Compound 42, (2S,4R)-1-((S)-2-(8-(4-(((R)-4′-chloro-6-((4-(4-(((4-(((R)-4-((2-hydroxyethyl)(methyl)amino)-1-(phenylthio)butan-2-yl)amino)-3-nitrophenyl)sulfonyl)carbamoyl)phenyl)piperazin-1-yl)methyl)-4-methyl-2,3,4,5-tetrahydro-[1,1′-biphenyl]-4-yl)methyl)piperazin-1-yl)-8-oxooctanamido)-3,3-dimethylbutanoyl)-4-hydroxy-N—((S)-1-(4-(4-methylthiazol-5-yl)phenyl)ethyl)pyrrolidine-2-carboxamide]	
		Cc1ncsc1-c1ccc([C@H](C)NC(=O)[C@@H]2C[C@@H](O)CN2C(=O)[C@@H](NC(=O)CN(C)CCCNC(=O)c2ccc(N3CCN(C[C@]4(C)CCC(c5ccc(Cl)cc5)=C(CN5CCN(c6ccc(C(=O)NS(=O)(=O)c7ccc(N[C@H](CCN8CCCOCC8)CSc8ccccc8)c(S(=O)(=O)C(F)(F)F)c7)cc6)CC5)C4)CC3)nn2)C(C)(C)C)cc1 [Compound 112]	IC50 ([1]; MOLT-4, 48 h, read-out: Anti-Cancer Activity IC50 (48 hr) MOLT-4): 20 to 100 nM; IC50 ([2]; RS4-11, 48 h, read-out: Anti-Cancer Activity IC50 (48 hr) RS4, 11): < 20 nM
< 20	< 20	Cc1ncsc1-c1ccc([C@H](C)NC(=O)[C@@H]2C[C@@H](O)CN2C(=O)[C@@H](NC(=O)CCCCCCC(=O)N2CCN(CC3(C)CCC(c4ccc(Cl)cc4)=C(CN4CCN(c5ccc(C(=O)NS(=O)(=O)c6ccc(N[C@H](CCN(C)C)CSc7ccccc7)c(S(=O)(=O)C(F)(F)F)c6)cc5)CC4)C3)CC2)C(C)(C)C)cc1 (stereo partly drawn) [Compound 61]	
< 20	< 20	Cc1ncsc1-c1ccc([C@H](C)NC(=O)[C@@H]2C[C@@H](O)CN2C(=O)[C@@H](NC(=O)CCCCC(=O)N2CCC(C3CCN(CC4(C)CCC(c5ccc(Cl)cc5)=C(CN5CCN(c6ccc(C(=O)NS(=O)(=O)c7ccc(N[C@H](CCN8C[C@H]9C[C@@H]8CO9)CSc8ccccc8)c([N+](=O)[O-])c7)cc6)CC5)C4)CC3)CC2)C(C)(C)C)cc1 (stereo partly drawn) [Compound 54]	
< 20	< 20	Cc1ncsc1-c1ccc([C@H](C)NC(=O)[C@@H]2C[C@@H](O)CN2C(=O)[C@@H](NC(=O)CCCCCCC(=O)N2CCN(C[C@]3(C)CCC(c4ccc(Cl)cc4)=C(CN4CCN(c5ccc(C(=O)NS(=O)(=O)c6ccc(N[C@H](CCN7CCCCCC7)CSc7ccccc7)c([N+](=O)[O-])c6)cc5)CC4)C3)CC2)C(C)(C)C)cc1 [Compound 56]	
100 to 500	20 to 100	Cc1ncsc1-c1ccc([C@H](C)NC(=O)[C@@H]2C[C@@H](O)CN2C(=O)[C@@H](NC(=O)CCCCCCC(=O)N2CCN(CC3(C)CCC(c4ccc(Cl)cc4)=C(CN4CCN(c5ccc(C(=O)NS(=O)(=O)c6ccc(N[C@H](CCN(CCO)C7CC7)CSc7ccccc7)c([N+](=O)[O-])c6)cc5)CC4)C3)CC2)C(C)(C)C)cc1 (stereo partly drawn) [Compound 44, (2S,4R)-1-((2S)-2-(8-(4-((4′-chloro-6-((4-(4-(((4-(((R)-4-(cyclopropyl(2-hydroxyethyl)amino)-1-(phenylthio)butan-2-yl)amino)-3-nitrophenyl)sulfonyl)carbamoyl)phenyl)piperazin-1-yl)methyl)-4-methyl-2,3,4,5-tetrahydro-[1,1′-biphenyl]-4-yl)methyl)piperazin-1-yl)-8-oxooctanamido)-3,3-dimethylbutanoyl)-4-hydroxy-N—((S)-1-(4-(4-methylthiazol-5-yl)phenyl)ethyl)pyrrolidine-2-carboxamide]	
500 to 10000	500 to 10000	Cc1ncsc1-c1ccc([C@H](C)NC(=O)[C@@H]2C[C@@H](O)CN2C(=O)[C@@H](NC(=O)CCCCCCC(=O)N2CCN(C[C@]3(C)CCC(c4ccc(Cl)cc4)=C(CN4CCN(c5ccc(C(=O)NS(=O)(=O)c6ccc(N[C@H](CCN7CCOC8(CCC8)C7)CSc7ccccc7)c(S(=O)(=O)C(F)(F)F)c6)cc5)CC4)C3)CC2)C(C)(C)C)cc1 [Compound 93]	
100 to 500	20 to 100	Cc1ncsc1-c1ccc([C@H](C)NC(=O)[C@@H]2C[C@@H](O)CN2C(=O)[C@@H](NC(=O)CCCCCCC(=O)N2CCN(C[C@]3(C)CCC(c4ccc(Cl)cc4)=C(CN4CCN(c5ccc(C(=O)NS(=O)(=O)c6ccc(N[C@H](CCN7CCc8cccnc8C7)CSc7ccccc7)c(S(=O)(=O)C(F)(F)F)c6)cc5)CC4)C3)CC2)C(C)(C)C)cc1 [Compound 71]	
		Cc1ncsc1-c1ccc([C@H](C)NC(=O)[C@@H]2C[C@@H](O)CN2C(=O)[C@@H](NC(=O)CN(C)CCC(=O)N2CCC(C3CCN(C[C@]4(C)CCC(c5ccc(Cl)cc5)=C(CN5CCN(c6ccc(C(=O)NS(=O)(=O)c7ccc(N[C@H](CCN8CCCOCC8)CSc8ccccc8)c(S(=O)(=O)C(F)(F)F)c7)cc6)CC5)C4)CC3)CC2)C(C)(C)C)cc1 [Compound 117]	IC50 ([1]; MOLT-4, Table 2A, 48 hr, MTS, read-out: Anti-Cancer Activity IC50 (48 hr) MOLT-4): 20 to 100 nM; IC50 ([2]; RS4-11, Table 2A, 48 hr, MTS, read-out: Anti-Cancer Activity IC50 (48 hr) RS4, 11): < 20 nM
20 to 100	< 20	Cc1ncsc1-c1ccc([C@H](C)NC(=O)[C@@H]2C[C@@H](O)CN2C(=O)[C@@H](NC(=O)CCCCCCC(=O)N2CCN(CC3(C)CCC(c4ccc(Cl)cc4)=C(CN4CCN(c5ccc(C(=O)NS(=O)(=O)c6ccc(N[C@H](CCN7CCC(O)CC7)CSc7ccccc7)c([N+](=O)[O-])c6)cc5)CC4)C3)CC2)C(C)(C)C)cc1 (stereo partly drawn) [Compound 46, (2S,4R)-1-((2S)-2-(8-(4-((4′-chloro-6-((4-(4-(((4-(((R)-4-(4-hydroxypiperidin-1-yl)-1-(phenylthio)butan-2-yl)amino)-3-nitrophenyl)sulfonyl)carbamoyl)phenyl)piperazin-1-yl)methyl)-4-methyl-2,3,4,5-tetrahydro-[1,1′-biphenyl]-4-yl)methyl)piperazin-1-yl)-8-oxooctanamido)-3,3-dimethylbutanoyl)-4-hydroxy-N—((S)-1-(4-(4-methylthiazol-5-yl)phenyl)ethyl)pyrrolidine-2-carboxamide]	IC50 ([1]; MOLT-4, Table 5, 48 h, read-out: MOLT-4 48 h IC50): 55.9 nM; IC50 ([2]; RS4-11, Table 5, 48 h, read-out: RS4 48 h IC50): 5.8 nM
100 to 500	20 to 100	Cc1ncsc1-c1ccc([C@H](C)NC(=O)[C@@H]2C[C@@H](O)CN2C(=O)[C@@H](NC(=O)CC(=O)N2CCC(S(=O)(=O)N3CCN(C[C@]4(C)CCC(c5ccc(Cl)cc5)=C(CN5CCN(c6ccc(C(=O)NS(=O)(=O)c7ccc(N[C@H](CCN8CCCOCC8)CSc8ccccc8)c(S(=O)(=O)C(F)(F)F)c7)cc6)CC5)C4)CC3)CC2)C(C)(C)C)cc1 [Compound 100]	
20 to 100	20 to 100	Cc1ncsc1-c1ccc([C@H](C)NC(=O)[C@@H]2C[C@@H](O)CN2C(=O)[C@@H](NC(=O)CCCCCNC(=O)c2ccc(N3CCN(CCN(C)CC4(C)CCC(c5ccc(Cl)cc5)=C(CN5CCN(c6ccc(C(=O)NS(=O)(=O)c7ccc(N[C@H](CCN8CCOCC8)CSc8ccccc8)c(S(=O)(=O)C(F)(F)F)c7)cc6)CC5)C4)CC3)cc2)C(C)(C)C)cc1 (stereo partly drawn) [Compound 15]	
